Measurements as given in article PMC7744773 (Redox Biology, 2020).

Biological target: CrGSNOR1 (Chlamydomonas reinhardtii, UniProt A0A2K3D6R4)
Test: X-ray crystal structure, […] Å
Conditions: co-crystallised with 1 mM NAD^+, pH 8.5; cofactor-binding domain

Chain of CrGSNOR1 (A0A2K3D6R4 1-378): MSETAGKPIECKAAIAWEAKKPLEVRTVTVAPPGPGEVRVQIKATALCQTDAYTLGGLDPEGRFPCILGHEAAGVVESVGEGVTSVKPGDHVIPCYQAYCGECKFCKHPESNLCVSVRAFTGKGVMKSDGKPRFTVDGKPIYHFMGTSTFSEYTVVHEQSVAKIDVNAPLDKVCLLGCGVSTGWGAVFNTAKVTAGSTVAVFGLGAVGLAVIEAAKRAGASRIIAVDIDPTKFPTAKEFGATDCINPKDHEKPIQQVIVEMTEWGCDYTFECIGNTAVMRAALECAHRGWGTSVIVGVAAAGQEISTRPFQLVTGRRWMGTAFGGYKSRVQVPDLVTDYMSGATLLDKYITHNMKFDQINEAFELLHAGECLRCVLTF

## NC(=O)c1ccc[n+]([C@@H]2O[C@H](COP(=O)(O)OP(=O)(O)OC[C@H]3O[C@@H](n4cnc5c(N)ncnc54)[C@H](O)[C@@H]3O)[C@@H](O)[C@H]2O)c1 [NAD^+]
  X-ray crystal structure, 2.3 Å: crystal structure of CrGSNOR1 under both apo- and holo-form (NAD^+-CrGSNOR1)
